Source: patent publication US7220575B2, “Melanoma differentiation associated gene-5 and promoter and uses thereof” (priority 2000, dated 2007)
Entries after “also recorded” stand apart in the source; their conditions may differ.

Assays:
[1] = system: mda-5 expression; assay: Northern blot analysis of mda-5 expression in early passage human skin fibroblast cells; format: cell-based
Protocol: (§1) FIGS. 2A–2B. Northern blot analysis of mda-5 expression by various compounds inducing differentiation in HO-1 human melanoma cells. RNA samples were extracted from cells treated as indicated for 24 hr. FIG. 2A. HO-1 human melanoma cells. FIG. 2B. Early passage human skin fibroblast cells. Northern hybridization was performed as in Materials and Methods.
(§2) FIGS. 4A–4B. Northern blot analysis of mda-5 expression by ligands for various membrane receptors. RNA samples were extracted from cells treated as indicated for 24 hr. FIG. 4A. HO-1 human melanoma cells. FIG. 4B. Early passage human skin fibroblast cells. Northern hybridization was performed as in Materials and Methods.
(§3) Cell Culture and Treatment Protocol: HO-1 human melanoma cells, early passage human skin fibroblast (purchased from ATCC) and 293T cells were grown in Dulbecco's modified Eagle's medium supplemented with 10% fetal bovine serum at 37° C. in a 5% CO2/95% air humidified incubator. Prior to treatment, cells were refed with fresh medium and exposed to the indicated compound(s) at the concentrations specified in the figure legends.
(§4) Northern Blot Analyses and Nuclear Run-On Assays: Total cellular RNA samples were prepared by guanidium isothiocyanate/phenol extraction followed by isopropanol precipitation. Ten 10 μg of total RNA were resolved in 1% agarose gels with formaldehyde and were transferred to Nylon membranes. EcoRI fragment of mda-5 cDNA (2.5 kb) was labeled with 32P using a multiprime labeling kit (Boehringer Mannheim) and used to probe the transferred membrane. Nuclear run-on assays were performed as previously described ((17) Su et al., 1993, 1999). Probes used for nuclear run-on assays were prepared by RT-PCR and included the mda-5 5′, 9–837 bp; mda-5 3′, 2531–3365 bp; and GAPDH fragment.

[2] = system: mda-5 expression; assay: Northern blot analysis of mda-5 expression in HO-1 human melanoma cells; format: cell-based; settings: HO-1 cells; for mda-5 expression (steady-state mda-5 message level): treated 24 hr, Northern blot
Protocol: as §1, §2
FIG. 5. Northern blot analysis and time course of mda-5 expression. RNA samples were extracted from HO-1 cells treated with the indicated reagents and harvested at the indicated time after treatment. Northern blotting was performed as in Materials and Methods.
(§5) FIGS. 7A–7C. […] A. Northern blot analysis of mda-5. […] Cells were harvested at the indicated time after actinomycin D treatment. Northern hybridization was performed as in Materials and Methods. FIG. 7B. Nuclear run-on assays for determining mda-5 transcription rates. Nuclei were prepared from HO-1 melanoma cells treated with the indicated reagent(s) for 4 hr. Blots were prepared and hybridized as described in Materials and Methods. […] FIG. 7C. Northern blot analysis of mda-5 expression after blocking protein synthesis by cycloheximide (CHX). RNA samples were extracted from HO-1 melanoma cells pretreated with 50 μg/ml cycloheximide for 30 min and treated with the indicated reagents for 8 hr. Abbreviations and concentrations of indicated reagents are as in FIG. 4.
as §3, §4

[3] = system: mda-5 promoter; assay: mda-5 promoter luciferase reporter in HO-1 cells (transient and stable clones); format: cell-based, human
Protocol: FIG. 11: Screening of stable human HO-1 melanoma clones for promoter activity of stably integrated mda-5 reporter construct. Transfected HO-1 cells were selected by Puromycin drug selection and individual colonies analyzed for induction of luciferase activity in the presence of IFN-β. Values are expressed as fold change against uninduced values of luciferase activity.
FIG. 12: Induction kinetics of mda-5 promoter activity. Stable clones #20 and #40 were treated with IFN-β and samples were harvested and analyzed for luciferase activity at the times indicated.
FIG. 13: Responsiveness of the mda-5 promoter to IFN-β levels: Stable clones #20 and #40 were treated with IFN-β and samples were harvested and analyzed for luciferase activity 48h after initiation of treatment. The extent of activity was normalized based on equivalent protein content and performed in duplicate for each clone.
FIGS. 14A–14B: Responsiveness of the mda-5 promoter to various inducers: FIG. 14A. HO-1 cells transiently transfected with the mda-5 reporter and treated for 48 h with equivalent units of IFNs α, β and γ and TNF-α and poly IC:IC. The luciferase activity was expressed as fold increase over untreated control cells. FIG. 14B. Clone #40 was treated with equivalent units of the indicated IFNs for 48 h and luciferase activity expressed as fold activation over untreated cells determined. […]

[4] = system: mda-5 transcription; assay: Nuclear run-on assays for mda-5 transcription rates in HO-1 melanoma cells; format: cell-based, human; settings: HO-1 cells treated 4 hr
Protocol: as §5
as §4, with “Probes used for nuclear run-on assays were prepared by RT-PCR and included the mda-5 5′, 9–837 bp; mda-5 3′, 2531–3365 bp; and GAPDH fragment.” left out

| Compound | mda-5 expression [1] | mda-5 expression (steady-state mda-5 message level) [2] | other results |
| --- | --- | --- | --- |
| IFN-α | induce mda-5 expression | induce mda-5 expression; also recorded: increase mda-5 transcript levels, but the magnitude of this effect is less than with IFN-β or dsRNA | – |
| C[S+](C)[O-] [dimethyl sulfoxide] | – | fail to significantly induce mda-5 expression | – |
| C[C@@H]1C[C@@H]([C@H](O)CC2CC(=O)NC(=O)C2)C(=O)[C@@H](C)C1 [Cycloheximide, cycloheximide] | – | – | effect of cycloheximide pre-treatment on mda-5 steady-state mRNA levels induced by IFNs, TNF and poly IC ([2]; 50 μg/ml cycloheximide 30 min, then inducers 8 hr): does not inhibit |
| poly IC | induce mda-5 expression | induce mda-5 expression | responsiveness of mda-5 promoter construct / clones to inducer [3]: most responsive; mda-5 expression (steady-state mda-5 message level) ([2]; listed as dsRNA): dramatically increases |
| IFN-γ: interferon-γ | induce mda-5 expression | induce mda-5 expression; also recorded: increase mda-5 transcript levels, but the magnitude of this effect is less than with IFN-β or dsRNA | – |
| CCCCCCCCCCCCCC(=O)O[C@@H]1[C@@H](C)[C@@]2(O)[C@@H](C=C(CO)C[C@]3(O)C(=O)C(C)=C[C@@H]23)[C@@H]2C(C)(C)[C@]12OC(C)=O [TPA, 12-O-tetradecanoylphorbol-13-acetate] | – | fail to significantly induce mda-5 expression | – |
| C=C(C)[C@@]12O[C@@]3(c4ccccc4)O[C@@H]1[C@@H]1[C@@H]4O[C@]4(CO)[C@@H](O)[C@]4(O)C(=O)C(C)=C[C@H]4[C@@]1(O3)[C@H](C)[C@H]2OC(=O)/C=C/C=C/c1ccccc1 [MEZ, mezerein] | – | does not induce mda-5 expression | mda-5 transcription (nuclear run-on) [4]: negligible levels of transcription; augmentation of mda-5 expression by MEZ in combination with IFN-β ([2]; 24 hr): approximately 3 fold; augmentation of mda-5 expression by MEZ in combination with IFN-γ ([2]; 24 hr): ~5 fold; time at which mda-5 message level begins increasing / induction first apparent ([2]; time course): 48 h |
| CC1=C(/C=C/C(C)=C/C=C/C(C)=C/C(=O)O)C(C)(C)CCC1 [all trans retinoic acid, all-trans-retinoic acid] | – | fail to significantly induce mda-5 expression | – |
| COc1c(C)c2c(c(O)c1C/C=C(\C)CCC(=O)O)C(=O)OC2 [mycophenolic acid] | – | fail to significantly induce mda-5 expression | – |
| TNF-α | induce mda-5 expression | induce mda-5 expression; also recorded: comparable levels as seen with IFN-α | – |
| Nc1ncnc2c1ncn2[C@@H]1O[C@@H]2COP(=O)(O)O[C@H]2[C@H]1O [cyclic-AMP, 3′–5′ cyclic adenosine monophosphate] | – | fail to significantly induce mda-5 expression | – |
